Reference: US12338220B2, “Antiviral pyrazolopiridinone compounds” (Novartis AG, priority 2019, dated 2025)
Where two headings read alike, the source gives them in different places.

Legend:
CMV-polymerase = CMV-polymerase (Human cytomegalovirus (strain AD169) (HHV-5) (Human herpesvirus 5), UniProt P08546); assay: biochemical
CMV = assay: microbe, parasite or virus in culture; assay type: cell-based; details: Human betaherpesvirus 5, 72 h, read-out: CMV-Luc Cellular EC50, NN-NHDF cells, MOI 1, 72 hrs
[1] = CMV-polymerase Biochemical IC50
[2] = read-out: CMV-polymerase Biochemical IC50

Compound	IC50 (CMV-polymerase; [1])	EC50 (CMV)	IC50 (CMV-polymerase; [2])
O=C(NCc1ccc(Cl)cc1)c1n[nH]c2c1CCN(CC1(S(=O)(=O)C3CC3)CC1)C2=O [Example 44, N-(4-Chlorobenzyl)-6-((1-(cyclopropylsulfonyl)cyclopropyl)methyl)-7-oxo-4,5,6,7-tetrahydro-1H-pyrazolo[3,4-c]pyridine-3-carboxamide]	4 nM	76 nM	–
CS(=O)(=O)C1(CN2CCc3c(nn4c3C(=O)N(Cc3ccc(C#N)cc3)CC4)C2=O)CC1 [Example 46, 4-((8-((1-(Methylsulfonyl)cyclopropyl)methyl)-1,7-dioxo-3,4,7,8,9,10-hexahydropyrido[3′,4′:3,4]pyrazolo[1,5-a]pyrazin-2(1H)-yl)methyl)benzonitrile]	41 nM	746 nM	–
N#Cc1ccc(CNC(=O)c2nn(CC3(CO)CC3)c3c2CCN(CC2(S(=O)(=O)C4CC4)CC2)C3=O)cc1 [Example 47, N-(4-Cyanobenzyl)-6-((1-(cyclopropylsulfonyl)cyclopropyl)methyl)-1-((1-(hydroxymethyl)cyclopropyl)methyl)-7-oxo-4,5,6,7-tetrahydro-1H-pyrazolo[3,4-c]pyridine-3-carboxamide]	2 nM	42 nM	–
CS(=O)(=O)C1(CN2CCc3c(C(=O)NCc4ccc(C#N)cc4)nn(CC4(CO)CC4)c3C2=O)CC1 [Example 48, N-(4-Cyanobenzyl)-1-((1-(hydroxymethyl)cyclopropyl)methyl)-6-((1-(methylsulfonyl)cyclopropyl)methyl)-7-oxo-4,5,6,7-tetrahydro-1H-pyrazolo[3,4-c]pyridine-3-carboxamide]	11 nM	331 nM	–
CC(C)(CO)S(=O)(=O)C1(CN2CCc3c(C(=O)NCc4ccc(C#N)cc4)n[nH]c3C2=O)CC1 [Example 49, N-(4-Cyanobenzyl)-6-((1-((1-hydroxy-2-methylpropan-2-yl)sulfonyl)cyclopropyl)methyl)-7-oxo-4,5,6,7-tetrahydro-1H-pyrazolo[3,4-c]pyridine-3-carboxamide]	4 nM	58 nM	–
Cn1nc(C(=O)NCc2ccc(Cl)cc2)c2c1C(=O)N(CC1(S(=O)(=O)C(C)(C)CO)CC1)CC2 [Example 50, N-(4-Chlorobenzyl)-6-((1-((1-hydroxy-2-methylpropan-2-yl)sulfonyl)cyclopropyl)methyl)-1-methyl-7-oxo-4,5,6,7-tetrahydro-1H-pyrazolo[3,4-c]pyridine-3-carboxamide]	1 nM	20 nM	–
Cn1nc(C(=O)NCc2ccc(Cl)nc2)c2c1C(=O)N(CC1(S(=O)(=O)C(C)(C)CO)CC1)CC2 [Example 51, N-((6-Chloropyridin-3-yl)methyl)-6-((1-((1-hydroxy-2-methylpropan-2-yl)sulfonyl)cyclopropyl)methyl)-1-methyl-7-oxo-4,5,6,7-tetrahydro-1H-pyrazolo[3,4-c]pyridine-3-carboxamide]	–	172 nM	6 nM
Cn1nc(C(=O)NCc2ccc(C#N)cc2)c2c1C(=O)N(CC1(S(=O)(=O)C(C)(C)CO)CC1)CC2 [Example 52, N-(4-Cyanobenzyl)-6-((1-((1-hydroxy-2-methylpropan-2-yl)sulfonyl)cyclopropyl)methyl)-1-methyl-7-oxo-4,5,6,7-tetrahydro-1H-pyrazolo[3,4-c]pyridine-3-carboxamide]	–	19 nM	1 nM
Cn1nc(C(=O)NCc2ccc(F)cc2)c2c1C(=O)N(CC1(S(=O)(=O)C(C)(C)CO)CC1)CC2 [Example 53, N-(4-Fluorobenzyl)-6-((1-((1-hydroxy-2-methylpropan-2-yl)sulfonyl)cyclopropyl)methyl)-1-methyl-7-oxo-4,5,6,7-tetrahydro-1H-pyrazolo[3,4-c]pyridine-3-carboxamide]	–	141 nM	7 nM
C[C@H](NC(=O)c1nn(C)c2c1CCN(CC1(S(=O)(=O)C(C)(C)CO)CC1)C2=O)c1ccc(C#N)cc1 [Example 54, (S)-N-(1-(4-Cyanophenyl)ethyl)-6-((1-((1-hydroxy-2-methylpropan-2-yl)sulfonyl)cyclopropyl)methyl)-1-methyl-7-oxo-4,5,6,7-tetrahydro-1H-pyrazolo[3,4-c]pyridine-3-carboxamide]	–	53 nM	2 nM
C[C@@H](NC(=O)c1nn(C)c2c1CCN(CC1(S(=O)(=O)C(C)(C)CO)CC1)C2=O)c1ccc(C#N)cc1 [Example 55, (R)-N-(1-(4-Cyanophenyl)ethyl)-6-((1-((1-hydroxy-2-methylpropan-2-yl)sulfonyl)cyclopropyl)methyl)-1-methyl-7-oxo-4,5,6,7-tetrahydro-1H-pyrazolo[3,4-c]pyridine-3-carboxamide]	–	> 10000 nM	601 nM
Cn1nc(C(=O)NCc2ccc(C#N)cc2)c2c1C(=O)N(CC1(S(=O)(=O)C(C)(C)COC(F)F)CC1)CC2 [Example 58, N-(4-Cyanobenzyl)-6-((1-((1-(difluoromethoxy)-2-methylpropan-2-yl)sulfonyl)cyclopropyl)methyl)-1-methyl-7-oxo-4,5,6,7-tetrahydro-1H-pyrazolo[3,4-c]pyridine-3-carboxamide]	–	25 nM	1 nM
Cn1nc(C(=O)NCc2ccc(C#N)cc2)c2c1C(=O)N(CC1(S(=O)(=O)C(C)(C)C#N)CC1)CC2 [Example 59, N-(4-Cyanobenzyl)-6-((1-((2-cyanopropan-2-yl)sulfonyl)cyclopropyl)methyl)-1-methyl-7-oxo-4,5,6,7-tetrahydro-1H-pyrazolo[3,4-c]pyridine-3-carboxamide]	1 nM	33 nM	–
Cn1nc(C(=O)NCc2ccc(C#N)cc2)c2c1C(=O)N(CC1(S(=O)(=O)C(C)(C)CN3CC(F)C3)CC1)CC2 [Example 60, N-(4-Cyanobenzyl)-6-((1-((1-(3-fluoroazetidin-1-yl)-2-methylpropan-2-yl)sulfonyl)cyclopropyl)methyl)-1-methyl-7-oxo-4,5,6,7-tetrahydro-1H-pyrazolo[3,4-c]pyridine-3-carboxamide]	2 nM	62 nM	–
Cn1nc(C(=O)NCc2ccc(C#N)cc2)c2c1C(=O)N(CC1(S(=O)(=O)C(C)(C)CN3CCOCC3)CC1)CC2 [Example 61, N-(4-Cyanobenzyl)-1-methyl-6-((1-((2-methyl-1-morpholinopropan-2-yl)sulfonyl)cyclopropyl)methyl)-7-oxo-4,5,6,7-tetrahydro-1H-pyrazolo[3,4-c]pyridine-3-carboxamide]	–	145 nM	6 nM
CO[C@@H]1CCN(CC(C)(C)S(=O)(=O)C2(CN3CCc4c(C(=O)NCc5ccc(C#N)cc5)nn(C)c4C3=O)CC2)C1 [Example 62, (R)-N-(4-cyanobenzyl)-6-((1-((1-(3-methoxypyrrolidin-1-yl)-2-methylpropan-2-yl)sulfonyl)cyclopropyl)methyl)-1-methyl-7-oxo-4,5,6,7-tetrahydro-1H-pyrazolo[3,4-c]pyridine-3-carboxamide]	–	136 nM	4 nM
Cn1nc(C(=O)NCc2ccc(C#N)cc2)c2c1C(=O)N(CC1(S(=O)(=O)C(C)(C)CN3CC4CC(C3)O4)CC1)CC2 [Example 63, 6-((1-((1-(6-Oxa-3-azabicyclo[3.1.1]heptan-3-yl)-2-methylpropan-2-yl)sulfonyl)cyclopropyl)methyl)-N-(4-cyanobenzyl)-1-methyl-7-oxo-4,5,6,7-tetrahydro-1H-pyrazolo[3,4-c]pyridine-3-carboxamide]	–	220 nM	6 nM
Cn1nc(C(=O)NCc2ccc(C#N)cc2)c2c1C(=O)N(CC1(S(=O)(=O)C(C)(C)CN3CC4CC3CO4)CC1)CC2 (stereo not shown) [Example 64, 6-((1-((1-(2-Oxa-5-azabicyclo[2.2.1]heptan-5-yl)-2-methylpropan-2-yl)sulfonyl)cyclopropyl)methyl)-N-(4-cyanobenzyl)-1-methyl-7-oxo-4,5,6,7-tetrahydro-1H-pyrazolo[3,4-c]pyridine-3-carboxamide]	–	106 nM	4 nM
Cn1nc(C(=O)NCc2ccc(C#N)cc2)c2c1C(=O)N(CC1(S(=O)(=O)C(C)(C)CN3CC(O)C3)CC1)CC2 [Example 65, N-(4-Cyanobenzyl)-6-((1-((1-(3-hydroxyazetidin-1-yl)-2-methylpropan-2-yl)sulfonyl)cyclopropyl)methyl)-1-methyl-7-oxo-4,5,6,7-tetrahydro-1H-pyrazolo[3,4-c]pyridine-3-carboxamide]	–	50 nM	2 nM
COC1CN(CC(C)(C)S(=O)(=O)C2(CN3CCc4c(C(=O)NCc5ccc(C#N)cc5)nn(C)c4C3=O)CC2)C1 [Example 66, N-(4-Cyanobenzyl)-6-((1-((1-(3-methoxyazetidin-1-yl)-2-methylpropan-2-yl)sulfonyl)cyclopropyl)methyl)-1-methyl-7-oxo-4,5,6,7-tetrahydro-1H-pyrazolo[3,4-c]pyridine-3-carboxamide]	–	88 nM	2 nM
Cn1nc(C(=O)NCc2ccc(C#N)cc2)c2c1C(=O)N(CC1(S(=O)(=O)C(C)(C)CN3CC4(COC4)C3)CC1)CC2 [Example 67, N-(4-Cyanobenzyl)-1-methyl-6-((1-((2-methyl-1-(2-oxa-6-azaspiro[3.3]heptan-6-yl)propan-2-yl)sulfonyl)cyclopropyl)methyl)-7-oxo-4,5,6,7-tetrahydro-1H-pyrazolo[3,4-c]pyridine-3-carboxamide]	–	82 nM	2 nM
Cn1nc(C(=O)NCc2ccc(C#N)cc2)c2c1C(=O)N(CC1(S(=O)(=O)C(C)(C)CN3CCC(O)C3)CC1)CC2 (stereo not shown) [Example 68, N-(4-Cyanobenzyl)-6-((1-((1-(3-hydroxypyrrolidin-1-yl)-2-methylpropan-2-yl)sulfonyl)cyclopropyl)methyl)-1-methyl-7-oxo-4,5,6,7-tetrahydro-1H-pyrazolo[3,4-c]pyridine-3-carboxamide]	–	115 nM	1 nM
Cn1nc(C(=O)NCc2ccc(C#N)cc2)c2c1C(=O)N(CC1(S(=O)(=O)C(C)(C)CNCCO)CC1)CC2 [Example 69, N-(4-Cyanobenzyl)-6-((1-((1-((2-hydroxyethyl)amino)-2-methylpropan-2-yl)sulfonyl)cyclopropyl)methyl)-1-methyl-7-ox0-4,5,6,7-tetrahydro-1H-pyrazolo[3,4-c]pyridine-3-carboxamide]	–	57 nM	1 nM
